{
  "source": "patent US20250129119A1",
  "about": "“PEPTIDE HAVING ANTI-INFLAMMATORY ACTIVITY AND USE THEREOF” (CAREGEN CO., LTD., priority 2021, published 2025)",
  "assay_type_in_all_cases": "cell-based",
  "key": {"[1]": {"system": "secretion of INFγ induced by LPS, TGF-β, and IL-23 in splenocytes", "assay": "ELISA of INFγ secretion in splenocytes stimulated with LPS, TGF-β and IL-23", "conditions": "mouse splenocytes; peptide 5 μM and 50 μM; LPS 2 μg/mL, TGF-β 20 ng/mL, IL-23 20 ng/mL; 24 hours; FIG. 4", "experimental": "In order to confirm the effect of the peptides of the present invention synthesized in Synthesis Example 1 on the inflammatory response induced by LPS, TGF-β, and IL-23, the secretion amount of INFγ, which is an inflammatory cytokine, was measured by ELISA.\n(§1) Specifically, 6-7 week old mice (C57BL/6, Young Bio Co., Ltd.) were sacrificed to obtain spleens, which were crushed using a cell strainer, and then centrifuged with serum-free RPMI-1640 medium. The supernatant was discarded and red blood cells (RBCs) were removed twice using RBC lysis buffer. Then, after washing the resultant with serum-free RPMI-1640 medium, an appropriate amount of serum-free RPMI-1640 medium was added thereto. The number of mouse splenocytes was measured, and the cells were inoculated into a 24-well plate at a density of 1×10^7 cells/well, and cultured overnight. […]\nNext, the cell culture was recovered after cultivation, and the amount of secretion of INFγ, which is an inflammatory cytokine, was measured using an ELISA kit (Quantikine ELISA Kit, R&D System, USA) specific to INFγ, and the absorbance was measured using Spectramax M2 (Molecular Devices)."}, "[2]": {"system": "secretion of IL-17 induced by TNF-α and IL-17A in splenocytes", "assay": "ELISA of IL-17 secretion in splenocytes stimulated with TNF-α and IL-17A", "conditions": "mouse splenocytes; peptide 5 μM and 50 μM; TNF-α 20 nM and IL-17A 200 ng/mL; 24 hours; FIG. 5", "experimental": "In order to confirm the effect of the peptides of the present invention synthesized in Synthesis Example 1 on the inflammatory response induced by TNF-α and IL-17A, the secretion amount of IL-17, which is an inflammatory cytokine, was measured by ELISA.\nas §1, with “mice” for “mice (C57BL/6, Young Bio Co., Ltd.)”\nNext, the cell culture was recovered after cultivation, and the amount of secretion of IL-17, which is an inflammatory cytokine, was measured using an ELISA kit (Quantikine ELISA Kit, R&D System, USA) specific to […], and the absorbance was measured using Spectramax M2 (Molecular Devices)."}, "[3]": {"system": "TNF-α, COX2, IL-6 and IL-8 mRNA expression in human keratinocytes HaCaT", "assay": "RT-PCR of inflammatory gene mRNA in HaCaT keratinocytes stimulated with TNF-α and hIL-17A", "conditions": "peptide 5 μM and 50 μM, TNF-α 10 nM and hIL-17A 200 ng/mL, one hour, FIG. 6", "experimental": "In order to confirm the effect of the peptides of the present invention synthesized in Synthesis Example 1 on Th17-mediated inflammatory responses, the mRNA expression levels of TNF-α, COX2, IL-6, and IL-8 were measured by RT-PCR.\n(§2) Specifically, the number of human keratinocytes HaCaT (CLS Cell Lines Service)) was measured, and the cells were inoculated into a 24-well plate at a density of 3×10^5 cells/well, and cultured overnight. Next day, the medium was replaced with serum-free medium and the cells were cultured for 4 hours, and then treated with the peptide of the present invention (5 μM and 50 μM) and TNF-α (10 nM) and hIL-17A (200 ng/mL), which are Th17 type inflammation-inducing cytokines, used as a stimulant, and cultured for one additional hour.\nNext, cells were recovered after culture, and total RNA was extracted using an RNA extraction kit (Qiagen RNeasy kit), and after RNA quantification, cDNA was synthesized using a cDNA synthesis kit (Intron, Korea). A polymerase chain reaction (PCR) was performed by mixing a PCR premix (Intron, Korea), synthesized cDNA, and primers shown in [Table 3] below specific for each of the genes of TNF-α, COX2, IL-6, IL-8, and GAPDH. PCR products were electrophoresed on a 5% agarose gel and stained with ethidium bromide to confirm the mRNA expression levels of TNF-α, COX2, IL-6, and IL-8, which are genes associated with inflammation and autoimmune diseases."}, "[4]": {"system": "secretion of TNF-α, IL-1β and INFγ induced by TNF-α in splenocytes", "assay": "ELISA of cytokine secretion in TNF-α-stimulated splenocytes", "conditions": "mouse splenocytes, peptide 5 μM and 50 μM, TNF-α 20 nM, 24 hours", "experimental": "In order to confirm the effect of the peptides of the present invention synthesized in Synthesis Example 1 on the inflammatory response induced by TNF-α, the secretion amounts of TNF-α, IL-1β, and INFγ, which are inflammatory cytokines, were measured by ELISA.\n(§3) Specifically, 6-7 week old mice (C57BL/6, Young Bio Co., Ltd.) were sacrificed to obtain spleens, which were crushed using a cell strainer, and then centrifuged with serum-free RPMI-1640 medium. The supernatant was discarded and red blood cells (RBCs) were removed twice using RBC lysis buffer. Then, after washing the resultant with serum-free RPMI-1640 medium, an appropriate amount of serum-free RPMI-1640 medium was added thereto. The number of mouse splenocytes was measured, and the cells were inoculated into a 24-well plate at a density of 1×10^7 cells/well, and cultured overnight. Next day, the medium was replaced with serum-free medium and the cells were cultured for 4 hours, and then treated with the peptide of the present invention (5 μM and 50 μM) and TNF-α (20 nM), which is an inflammation-inducing substance, as a stimulant, and cultured for 24 additional hours.\nNext, the cell culture was recovered after cultivation, and the amounts of secretion of TNF-α, IL-1β, and INFγ, which are inflammatory cytokines, were measured using an ELISA kit (Quantikine ELISA Kit, R&D System, USA) specific to TNF-α, IL-1β, and INFγ, and the absorbance was measured using Spectramax M2 (Molecular Devices)."}, "[5]": {"system": "secretion of TNF-α, IFN-γ and IL-17 induced by LPS in splenocytes", "assay": "ELISA of cytokine secretion in LPS-stimulated splenocytes", "conditions": "mouse splenocytes, peptide 5 μM and 50 μM, LPS 2 μg/mL, 24 hours", "experimental": "In order to confirm the effect of the peptides of the present invention synthesized in Synthesis Example 1 on the inflammatory response induced by LPS, the secretion amounts of inflammatory cytokines TNF-α, IL-17, and INFγ were measured by ELISA.\nas §3, with “LPS (2 μg/mL),” for “TNF-α (20 nM),”\nNext, the cell culture was recovered after cultivation, and the amounts of secretion of IL-17, IFN-γ, and TNF-α, which are secretion markers during Th17 differentiation, were measured using an ELISA kit (Quantikine ELISA Kit, R&D System, USA) specific to IL-17, IFN-γ, and TNF-α, and the absorbance was measured using Spectramax M2 (Molecular Devices)."}, "[6]": {"system": "COX2 and INFγ mRNA expression induced by LPS in splenocytes", "assay": "RT-PCR of inflammatory gene mRNA in LPS-stimulated splenocytes", "conditions": "mouse splenocytes; peptide 5 μM and 50 μM; LPS 2 μg/mL; 3 hours; FIG. 1", "experimental": "In order to confirm the effect of the peptides of the present invention synthesized in Synthesis Example 1 on the inflammatory response induced by LPS, the expression levels of mRNA of inflammatory cytokines COX2 and INFγ were measured by RT-PCR.\nas §3, with “centrifuged along” for “centrifuged”, “was added.” for “was added thereto.”, “and LPS (2 μg/mL),” for “and TNF-α (20 nM),”, “for 3” for “for 24”\nNext, cells were recovered after culture, and total RNA was extracted using an RNA extraction kit (Qiagen RNeasy kit), and after RNA quantification, cDNA was synthesized using a cDNA synthesis kit (Intron, Korea). […]"}, "[7]": {"system": "iNOS and pJNK in human keratinocytes HaCaT", "assay": "Western blot of iNOS and pJNK in HaCaT keratinocytes stimulated with TNF-α and hIL-17A", "conditions": "peptide 5 μM and 50 μM, TNF-α 10 nM and hIL-17A 200 ng/mL, 24 hours, FIG. 7", "experimental": "In order to confirm the effect of the peptides of the present invention synthesized in Synthesis Example 1 on Th17-mediated inflammatory responses, the degree of phosphorylation of iNOS and pJNK, which are inflammation-inducing factors and signaling proteins, was measured by Western blot.\nas §2, with “[…]” for “3×10^5”, “cytokines,” for “cytokines, used”, “24” for “one”, “hours.” for “hour.”\nAfter cultivation, the cells were recovered to prepare a cell lysate, and a western blot was performed using antibodies against iNOS and pJNK (Cell Signaling Technology, USA) to confirm the patterns of protein expression."}},
  "data": [
    {"sequence": "SVSVGMKPSPRP [peptide of the present invention]", "values": [
      {"measurement": "secretion of INFγ (ELISA)", "setting": "[1]", "value": "significantly reduce"},
      {"measurement": "secretion of IL-17 (ELISA)", "setting": "[2]", "value": "significantly reduce"},
      {"measurement": "mRNA expression of COX2 (RT-PCR)", "setting": "[3]", "value": "significantly reduce"},
      {"measurement": "mRNA expression of IL-6 (RT-PCR)", "setting": "[3]", "value": "significantly reduce"},
      {"measurement": "mRNA expression of IL-8 (RT-PCR)", "setting": "[3]", "value": "significantly reduce"},
      {"measurement": "mRNA expression of TNF-α (RT-PCR)", "setting": "[3]", "value": "significantly reduce"},
      {"measurement": "secretion of TNF-α (ELISA)", "setting": "[4]; FIG. 3A", "value": "significantly reduce"},
      {"measurement": "secretion of IL-1β (ELISA)", "setting": "[4]; FIG. 3B", "value": "significantly reduce"},
      {"measurement": "secretion of INFγ (ELISA)", "setting": "[4]; FIG. 3C", "value": "significantly reduce"},
      {"measurement": "secretion of TNF-α (ELISA)", "setting": "[5]; FIG. 2A", "value": "significantly reduce"},
      {"measurement": "secretion of IFN-γ (ELISA)", "setting": "[5]; FIG. 2B", "value": "significantly reduce"},
      {"measurement": "secretion of IL-17 (ELISA)", "setting": "[5]; FIG. 2C", "value": "significantly reduce"},
      {"measurement": "mRNA expression of COX2 (RT-PCR)", "setting": "[6]", "value": "significantly reduce"},
      {"measurement": "mRNA expression of INFγ (RT-PCR)", "setting": "[6]", "value": "significantly reduce"},
      {"measurement": "iNOS protein expression (Western blot)", "setting": "[7]", "value": "reduce"},
      {"measurement": "phosphorylation of JNK (Western blot)", "setting": "[7]", "value": "reduce"}
    ]}
  ]
}
